Data: US20240384268A1, “Oligonucleotides” (Hudson Institute of Medical Research, priority 2021, published 2024)
In the oligonucleotide strings, read from the 5' end, every base follows the letter of its sugar. An asterisk marks phosphorothioate; unmarked linkages are phosphodiester. Other units and linkages are bracketed, terminal groups are in braces. A string of capitals states the bases alone. d = 2'-deoxy (DNA); m = 2'-O-methyl

Molecular target: cGAS (Homo sapiens, UniProt Q8N884)
Assay: ISD70-driven IP-10 (and IFN-β) production in THP-1 cells, ELISA
Assay type: cell-based
Set-up: endogenous in cells; host or cells: THP-1 (undifferentiated)
Settings: for cGAS 100 nM (averaged IP-10 level relative to ISD70 condition): ASO 100 nM, relative to ISD70 only, given as fraction; for cGAS-100 nM: averaged IP-10 levels relative to ISD70: THP-1, 100 nM ASO overnight, then ISD70 2.5 μg/ml 7-8 h, percentage of ISD70 only

Sequence of cGAS (Q8N884 whole entry): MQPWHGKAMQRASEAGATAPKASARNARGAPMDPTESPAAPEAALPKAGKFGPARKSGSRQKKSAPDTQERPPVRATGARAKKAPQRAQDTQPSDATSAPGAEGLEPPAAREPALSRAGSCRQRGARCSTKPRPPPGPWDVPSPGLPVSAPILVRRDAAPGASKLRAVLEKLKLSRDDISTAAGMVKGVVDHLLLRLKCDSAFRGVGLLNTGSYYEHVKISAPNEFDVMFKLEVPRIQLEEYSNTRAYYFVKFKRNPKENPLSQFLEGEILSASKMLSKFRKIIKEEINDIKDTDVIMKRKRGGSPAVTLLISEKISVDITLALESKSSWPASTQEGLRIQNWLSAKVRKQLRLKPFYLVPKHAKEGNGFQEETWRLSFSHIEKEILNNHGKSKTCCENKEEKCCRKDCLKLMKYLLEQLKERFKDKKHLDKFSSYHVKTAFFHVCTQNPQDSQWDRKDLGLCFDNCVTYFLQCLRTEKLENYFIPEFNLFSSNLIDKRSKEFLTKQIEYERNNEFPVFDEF

| Substance | cGAS 100 nM (averaged IP-10 level relative to ISD70 condition) | also measured |
| --- | --- | --- |
| TACTTTCCGAGGTGTC (antisense; LNA-modified, pattern not given here) [CAMSAP1-1739 LNA KL] | 0.638 | – |
| CCACTTGGCAGACCAT (antisense; LNA-modified, pattern not given here) [CTNN2B-1575 LNA V1] | 0.532 | – |
| mA*mG*mU*mC*mU*C*C*A*T*G*T*C*C*C*A*mG*mG*mC*mC*mU (mA*mG*mU*mC*mU*dC*dC*dA*dT*dG*dT*dC*dC*dC*dA*mG*mG*mC*mC*mU; antisense) [[CDKN2B-AS1]2232] | – | cGAS-100 nM: averaged IP-10 levels relative to ISD70: 88.13% |
| mA*mA*mA*mG*mC*A*G*T*C*T*C*C*A*T*G*mU*mC*mC*mC*mA (mA*mA*mA*mG*mC*dA*dG*dT*dC*dT*dC*dC*dA*dT*dG*mU*mC*mC*mC*mA; antisense) [[CDKN2B-AS1]2237] | – | cGAS-100 nM: averaged IP-10 levels relative to ISD70: 70.95% |
| TGACAAAGATTCACTG (antisense; LNA-modified, pattern not given here) [HPRT LNA-1353 KL] | 0.887 | – |
| GAGGTCTTGGCTTCGT (antisense; LNA-modified, pattern not given here) [MB21D1-525 LNA V1] | 0.508 | – |
| GTGATGGCCTCCCATC (antisense; LNA-modified, pattern not given here) [HPRT LNA-333 V1] | 0.724 | – |
| GGTCTTGGCTTCGTGG (antisense; LNA-modified, pattern not given here) [MB21D1-523 LNA V1] | 0.648 | – |
| GGAGGTCTTGGCTTCG (antisense; LNA-modified, pattern not given here) [MB21D1-526 LNA V1] | 1.061 | – |
| CTTGGCTTCGTGGAGC (antisense; LNA-modified, pattern not given here) [MB21D1-520 LNA V1] | 0.666 | – |
| TGGTGGCCACCCATCT (antisense; LNA-modified, pattern not given here) [CTNN2B-2479 LNA V1] | 0.830 | – |
| AGATTTCAGAGCAGCT (antisense; LNA-modified, pattern not given here) [EGFR-4885 LNA KL] | 0.625 | – |
| CATCCACCACGTCGTC (antisense; LNA-modified, pattern not given here) [EGFR-3266 LNA V1] | 0.902 | – |
| ATCTGGCAGCCCATCA (antisense; LNA-modified, pattern not given here) [CTNN2B-2516 LNA V1] | 0.502 | – |
| GCACACTTCGTACCCA (antisense; LNA-modified, pattern not given here) [CAMSAP1-4915 LNA V1] | 0.383 | – |
| ATGTGATGGCCTCCCA (antisense; LNA-modified, pattern not given here) [HPRT LNA-335 V1] | 0.606 | – |
| mA*mU*mU*mU*mC*C*A*C*A*T*G*C*C*C*A*mG*mU*mG*mU*mU (AUUUCCACATGCCCAGUGUU; antisense; sugars from the 5' end m5 d10 m5, all phosphorothioate, methylation of C not given here) [[CDKN2B-AS1]626] | – | cGAS-100 nM: averaged IP-10 levels relative to ISD70: 52.58% |
| GTCTTCATCGGCCCTG (antisense; LNA-modified, pattern not given here) [CAMSAP1-2113 LNA V1] | 0.809 | – |
| TCGTGGGGTCCTTTTC (antisense; LNA-modified, pattern not given here) [HPRT LNA-660 V1] | 0.729 | – |
| mG*mU*mC*mU*mC*C*A*T*G*T*C*C*C*A*G*mG*mC*mC*mU*mC (mG*mU*mC*mU*mC*dC*dA*dT*dG*dT*dC*dC*dC*dA*dG*mG*mC*mC*mU*mC) [[CDKN2B;AS1]2231] | – | cGAS-100 nM: averaged IP-10 levels relative to ISD70: 84.16% |
| TGTCTGGAAGCTTCCT (antisense; LNA-modified, pattern not given here) [CTNN2B-808 LNA V1] | 0.617 | – |
| GGCTCGGCTTGCCTAC (antisense; LNA-modified, pattern not given here) [CAMSAP1-5594 LNA V1] | 0.761 | – |
| ACTTCGTGGGGTCCTT (antisense; LNA-modified, pattern not given here) [HPRT LNA-663 V1] | 0.937 | – |
| CCAGCAGGTCAGCAAA (antisense; LNA-modified, pattern not given here) [HPRT LNA-388 KL] | 0.552 | – |
| mC*mA*mG*mU*mG*T*T*T*T*T*A*A*T*T*T*mU*mG*mU*mA*mG (mC*mA*mG*mU*mG*dT*dT*dT*dT*dT*dA*dA*dT*dT*dT*mU*mG*mU*mA*mG; antisense) [[CDKN2B-AS1]613] | – | cGAS-100 nM: averaged IP-10 levels relative to ISD70: 60.94% |

| Substance | cGAS 100 nM (averaged IP-10 level relative to ISD70 condition) | also measured |
| --- | --- | --- |
| ATGGCCTCCCATCTCC (antisense; LNA-modified, pattern not given here) [HPRT LNA-330 V1] | 0.475 | – |
| TGGTCCACAACCCCTT (antisense; LNA-modified, pattern not given here) [MB21D1-697 LNA V1] | 0.935 | – |
| GTGATCTTGACATGCT (antisense; LNA-modified, pattern not given here) [EGFR-2790 LNA KL] | 0.661 | – |
| GTCTCTGGAGCTTCCT (antisense; LNA-modified, pattern not given here) [CAMSAP1-2456 LNA V1] | 0.627 | – |
| TTCAGGCGCTGCCTTG (antisense; LNA-modified, pattern not given here) [CAMSAP1-2709 LNA V1] | 0.709 | – |
| CCACATCCTGTGGCTC (antisense; LNA-modified, pattern not given here) [CAMSAP1-2906 LNA V1] | 0.999 | – |
| GAAAGGTTATGCAAGG (antisense; LNA-modified, pattern not given here) [CTNN2B-916 LNA KL] | 0.473 | – |
| AACCCCTTTCACCATC (antisense; LNA-modified, pattern not given here) [MB21D1-689 LNA KL] | 0.621 | – |
| CGTATTATAGCCGATT (antisense; LNA-modified, pattern not given here) [NC1 LNA PS 3-10-3] | 0.443 | – |
| AGGACTCCAGATGTTT (antisense; LNA-modified, pattern not given here) [HPRT LNA pos cont] | 0.632 | – |
| mU*mA*mU*mU*mU*C*C*A*C*A*T*G*C*C*C*mA*mG*mU*mG*mU (mU*mA*mU*mU*mU*dC*dC*dA*dC*dA*dT*dG*dC*dC*dC*mA*mG*mU*mG*mU; antisense) [[CDKN2B-AS1]627] | – | cGAS-100 nM: averaged IP-10 levels relative to ISD70: 80.99% |
| AGTGTTGAGATACTCG (antisense; LNA-modified, pattern not given here) [EGFR-3652 LNA KL] | 0.692 | – |
| TCCGCCCAAAGGGAAC (antisense; LNA-modified, pattern not given here) [HPRT LNA-1027 KL] | 0.860 | – |
| TCTTCATCGGCCCTGC (antisense; LNA-modified, pattern not given here) [CAMSAP1-2112 LNA V1] | 0.548 | – |
| CGGCCTCGGAAGCTCT (antisense; LNA-modified, pattern not given here) [MB21D1-168 LNA V1] | 0.617 | – |
| AAAGGACTGAGGAAAG (antisense; LNA-modified, pattern not given here) [CAMSAP1-6273 LNA KL] | 0.675 | – |
| CTGCAGCTTCCTTGTC (antisense; LNA-modified, pattern not given here) [CTNN2B-2136 LNA V1] | 0.613 | – |
| mA*mG*mU*mG*mG*C*A*C*A*T*A*C*C*A*C*mA*mC*mC*mC*mU (AGUGGCACATACCACACCCU; antisense; sugars from the 5' end m5 d10 m5, all phosphorothioate, methylation of C not given here) [[CDKN2B-AS1]495] | – | cGAS-100 nM: averaged IP-10 levels relative to ISD70: 59.69% |
| CCTTGCACGTGGCTTC (antisense; LNA-modified, pattern not given here) [EGFR-1013 LNA V1] | 0.559 | – |
| mA*mA*mG*mC*mA*G*T*C*T*C*C*A*T*G*T*mC*mC*mC*mA*mG (mA*mA*mG*mC*mA*dG*dT*dC*dT*dC*dC*dA*dT*dG*dT*mC*mC*mC*mA*mG; antisense) [[CDKN2B-AS1]2236] | – | cGAS-100 nM: averaged IP-10 levels relative to ISD70: 107.34% |
| CACTTCGTGGGGTCCT (antisense; LNA-modified, pattern not given here) [HPRT LNA-664 V1] | 0.562 | – |
| GACTATACGCGCAATA (antisense; LNA-modified, pattern not given here) [NC5 LNA PS 3-10-3] | 0.991 | – |
| ACACTTCGTGGGGTCCTTTT (antisense; 2'-MOE modified, pattern not given here) [HPRT-663 MOE] | – | cGAS 100 nM (MOE-modified ASO at 100 nM, averaged IP-10 levels relative to ISD70 condition): 0.623 |
| ACGTTCAGTCCTGTCC (antisense; LNA-modified, pattern not given here) [HPRT LNA-294 V1] | 0.880 | – |
| GTCAAGGGCATATCCT (antisense; LNA-modified, pattern not given here) [HPRT LNA-732 KL] | 0.636 | – |
